Like-named read-outs stand apart in the source and are kept apart here.
How the values were obtained:
RET tyrosine kinase = RET tyrosine kinase (Homo sapiens (Human), UniProt P07949); assay: Assay of small molecular compounds for inhibiting the activity of RET kinase (LANCE TR-FRET)
Description: (§1) The assay is based on the LANCE TR-FRET technology of Perkin Elmer Inc., and the assay method is as follows:
(§2) 2.5 μL of the gradient-diluted compounds were taken with a transfer pipette to a 384-well plate.
Addition of enzyme: 5 μL of 2× RET kinase solution (concentration was 0.8 nM) was taken with a transfer pipette to the corresponding reaction well of the 384-well plate, mixed well and pre-reacted at room temperature for 30 minutes.
2.5 μL 4× Ultra ULight™-JAK-1 (Tyr1023) Peptide (concentration was 200 nM)/ATP (concentration was 40 μM) mixture was taken with a transfer pipette to the corresponding reaction well of the 384-well plate.
(§3) The final concentration of DMSO in the reaction system was 4%.
(§4) The mixture was mixed well and then centrifuged and reacted at room temperature in dark for 60 min.
(§5) The 384-well plate was placed into the Envision plate reader and the signal was detected using the appropriate program.

VEGFR2 tyrosine kinase = VEGFR2 tyrosine kinase (Homo sapiens (Human), UniProt P35968); assay: Assay of small molecular compounds for inhibiting the activity of VEGFR-2 kinase (LANCE TR-FRET)
Sequence of VEGFR2 tyrosine kinase (P35968 20-1356): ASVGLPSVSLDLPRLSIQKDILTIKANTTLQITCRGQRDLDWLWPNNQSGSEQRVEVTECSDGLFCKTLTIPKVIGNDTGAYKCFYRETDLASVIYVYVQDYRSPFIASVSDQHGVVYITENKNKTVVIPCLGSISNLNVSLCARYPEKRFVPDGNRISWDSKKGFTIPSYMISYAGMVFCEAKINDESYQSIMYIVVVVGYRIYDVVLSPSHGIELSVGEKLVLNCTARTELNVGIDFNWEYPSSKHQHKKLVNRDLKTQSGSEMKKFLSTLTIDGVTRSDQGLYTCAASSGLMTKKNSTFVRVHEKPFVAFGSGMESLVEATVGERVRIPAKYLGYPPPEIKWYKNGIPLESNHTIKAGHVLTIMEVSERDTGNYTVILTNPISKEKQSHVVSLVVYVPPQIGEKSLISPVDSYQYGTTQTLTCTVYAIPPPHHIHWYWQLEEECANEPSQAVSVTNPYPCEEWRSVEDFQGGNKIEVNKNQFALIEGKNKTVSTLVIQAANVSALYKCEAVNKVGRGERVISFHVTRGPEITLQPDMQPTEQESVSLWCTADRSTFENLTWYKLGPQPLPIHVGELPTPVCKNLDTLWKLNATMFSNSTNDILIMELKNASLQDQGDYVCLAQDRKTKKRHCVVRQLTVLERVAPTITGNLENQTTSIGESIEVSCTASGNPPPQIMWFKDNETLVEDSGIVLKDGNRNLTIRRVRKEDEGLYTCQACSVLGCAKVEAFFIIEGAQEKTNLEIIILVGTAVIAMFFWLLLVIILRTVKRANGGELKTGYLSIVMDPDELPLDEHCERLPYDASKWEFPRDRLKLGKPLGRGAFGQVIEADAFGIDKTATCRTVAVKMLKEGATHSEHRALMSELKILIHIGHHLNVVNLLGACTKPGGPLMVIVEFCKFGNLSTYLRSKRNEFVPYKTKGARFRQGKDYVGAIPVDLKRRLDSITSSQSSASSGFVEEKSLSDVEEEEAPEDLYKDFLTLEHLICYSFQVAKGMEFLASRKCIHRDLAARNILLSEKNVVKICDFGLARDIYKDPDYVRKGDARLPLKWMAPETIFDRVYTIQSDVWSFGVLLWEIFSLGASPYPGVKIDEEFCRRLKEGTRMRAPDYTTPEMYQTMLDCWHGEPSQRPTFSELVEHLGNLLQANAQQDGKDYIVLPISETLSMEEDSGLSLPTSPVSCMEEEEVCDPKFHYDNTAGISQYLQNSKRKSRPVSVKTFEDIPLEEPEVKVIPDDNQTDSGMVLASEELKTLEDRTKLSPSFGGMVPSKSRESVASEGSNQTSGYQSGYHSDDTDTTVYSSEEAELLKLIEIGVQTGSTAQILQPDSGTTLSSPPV
Description: as §1, §2
Addition of enzyme: 5 μL of 2× VEGFR2 kinase solution (concentration was 0.5 nM) was taken with a transfer pipette to the corresponding reaction well of the 384-well plate, mixed well and pre-reacted at room temperature for 30 minutes.
2.5 μL 4× Ultra ULight™-JAK-1 (Tyr1023) Peptide (concentration was 200 nM)/ATP (concentration was 40 μMM) mixture was taken with a transfer pipette to the corresponding reaction well of the 384-well plate.
Negative control: 2.5 μL/well 4× substrate/ATP mixture and 7.5 μL 1× Kinase Assay Buffer were added to the wells of the 384-well plate.
as §3, §4, §5

Sequence of RET tyrosine kinase (P07949 29-1114): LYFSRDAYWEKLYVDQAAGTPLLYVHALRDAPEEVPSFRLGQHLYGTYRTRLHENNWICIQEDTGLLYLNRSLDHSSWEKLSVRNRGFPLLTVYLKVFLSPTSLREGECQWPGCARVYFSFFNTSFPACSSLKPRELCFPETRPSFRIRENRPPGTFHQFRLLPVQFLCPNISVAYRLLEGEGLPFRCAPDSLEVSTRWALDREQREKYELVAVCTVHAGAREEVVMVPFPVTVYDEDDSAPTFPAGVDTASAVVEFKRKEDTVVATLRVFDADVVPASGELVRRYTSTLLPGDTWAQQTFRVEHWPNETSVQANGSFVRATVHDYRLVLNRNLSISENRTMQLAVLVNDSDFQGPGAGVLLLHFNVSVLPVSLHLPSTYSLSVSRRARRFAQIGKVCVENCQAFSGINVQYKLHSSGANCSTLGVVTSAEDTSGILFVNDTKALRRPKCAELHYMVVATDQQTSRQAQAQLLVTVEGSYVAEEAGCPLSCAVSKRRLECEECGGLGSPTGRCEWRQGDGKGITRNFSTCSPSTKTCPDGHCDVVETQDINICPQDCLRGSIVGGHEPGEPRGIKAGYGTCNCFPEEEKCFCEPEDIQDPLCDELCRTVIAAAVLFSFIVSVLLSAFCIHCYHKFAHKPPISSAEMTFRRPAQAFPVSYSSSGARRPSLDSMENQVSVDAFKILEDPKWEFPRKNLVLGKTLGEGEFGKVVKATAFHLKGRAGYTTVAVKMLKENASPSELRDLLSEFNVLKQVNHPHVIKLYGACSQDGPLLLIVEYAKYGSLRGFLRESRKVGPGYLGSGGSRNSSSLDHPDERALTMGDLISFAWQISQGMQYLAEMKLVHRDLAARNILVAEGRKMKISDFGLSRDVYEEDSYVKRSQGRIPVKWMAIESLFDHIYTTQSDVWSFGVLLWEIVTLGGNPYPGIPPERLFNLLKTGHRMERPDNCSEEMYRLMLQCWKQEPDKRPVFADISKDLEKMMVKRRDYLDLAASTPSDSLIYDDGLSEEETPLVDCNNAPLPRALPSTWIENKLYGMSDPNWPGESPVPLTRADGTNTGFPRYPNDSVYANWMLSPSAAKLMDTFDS

| Compound | IC50 (RET tyrosine kinase; read-out: RET IC50) [nM] | IC50 (VEGFR2 tyrosine kinase; read-out: VEGFR-2 IC50) [nM] | IC50 (RET tyrosine kinase) [nM] | IC50 (VEGFR2 tyrosine kinase) [nM] |
| --- | --- | --- | --- | --- |
| CC(C)CNC(=O)Nc1ccc(Oc2ccnc3cc(OCCCN4CCOCC4)c4c(c23)OCCO4)cc1Cl [Example 89, 1-(2-chloro-4-((5-(3-morpholinopropoxy)-2,3-dihydro-[1,4]dioxino[2,3-f]quinolin-10-yl)oxy)phenyl)-3-isobutylurea] | < 50 | < 50 |  |  |
| CC(=O)N1CCN(CCCOc2cc3nccc(Oc4ccc(NC(=O)NC5CC5)c(Cl)c4)c3c3c2OCCO3)CC1 [Example 57, 1-(4-((5-(3-(4-acetylpiperazin-1-yl)propoxy)-2,3-dihydro-[1,4]dioxino[2,3-f]quinolin-10-yl)oxy)-2-chlorophenyl)-3-cyclopropylurea] | < 50 | < 50 |  |  |
| CCNC(=O)Nc1ccc(Oc2ccnc3cc(OCCCN4CCOCC4)c4c(c23)OCCO4)cc1Cl [Example 86, 1-(2-chloro-4-((5-(3-morpholinopropoxy)-2,3-dihydro-[1,4]dioxino[2,3-f]quinolin-10-yl)oxy)phenyl)-3-ethylurea] |  |  | < 50 | < 50 |
| O=C(Nc1ccc(Oc2ccnc3cc(OCCCO)c4c(c23)OCCO4)cc1Cl)NC1CC1 [Example 50, 1-(2-chloro-4-((5-(3-hydroxypropoxy)-2,3-dihydro-[1,4]dioxino[2,3-f]quinolin-10-yl)oxy)phenyl)-3-cyclopropylurea] | < 50 | < 50 |  |  |
| CCOc1cc2nccc(Oc3ccc(NC(=O)NC4CC4)c(F)c3)c2c2c1OCCO2 [Example 90, 1-cyclopropyl-3-(4-((5-ethoxy-2,3-dihydro-[1,4]dioxino[2,3-f]quinolin-10-yl)oxy)-2-fluorophenyl)urea] | < 50 | < 50 |  |  |
| CNC(=O)Nc1ccc(Oc2ccnc3cc(OC)c4c(c23)OCCO4)cc1Cl [Example 79, 1-(2-chloro-4-((5-methoxy-2,3-dihydro-[1,4]dioxino[2,3-f]quinolin-10-yl)oxy)phenyl)-3-methylurea] | < 50 | < 50 |  |  |
| O=C(Nc1ccc(Oc2ccnc3cc(OCCO)c4c(c23)OCCO4)cc1)Nc1ccc(Cl)c(C(F)(F)F)c1 [Example 14, 1-(4-chloro-3-(trifluoromethyl)phenyl)-3-(4-((5-(2-hydroxyethoxy)-2,3-dihydro-[1,4]dioxino[2,3-f]quinolin-10-yl)oxy)phenyl)urea] | < 50 | < 50 |  |  |
| CC1(N)CCN(CCCOc2cc3nccc(Oc4ccc(NC(=O)Nc5ccc(Cl)c(C(F)(F)F)c5)cc4)c3c3c2OCCO3)CC1 [Example 26, 1-(4-((5-(3-(4-amino-4-methylpiperidin-1-yl)propoxy)-2,3-dihydro-[1,4]dioxino[2,3-f]quinolin-10-yl)oxy)phenyl)-3-(4-chloro-3-(trifluoromethyl)phenyl)urea] | < 50 | < 50 |  |  |
| O=C(Nc1ccc(Oc2ccnc3cc(OCCO)c4c(c23)OCCO4)cc1Cl)NC1CC1 [Example 48, 1-(2-chloro-4-((5-(2-hydroxyethoxy)-2,3-dihydro-[1,4]dioxino[2,3-f]quinolin-10-yl)oxy)phenyl)-3-cyclopropylurea] | < 50 | < 50 |  |  |
| COc1cc2nccc(Oc3ccc(NC(=O)NC4CC4)c(Cl)c3)c2c2c1OCCO2 [Example 7, 1-(2-chloro-4-((5-methoxy-2,3-dihydro-[1,4]dioxino[2,3-f]quinolin-10-yl)oxy)phenyl)-3-cyclopropylurea] |  |  | < 50 | < 50 |
| COCCCOc1cc2nccc(Oc3ccc(NC(=O)NC4CC4)c(Cl)c3)c2c2c1OCCO2 [Example 51, 1-(2-chloro-4-((5-(3-methoxypropoxy)-2,3-dihydro-[1,4]dioxino[2,3-f]quinolin-10-yl)oxy)phenyl)-3-cyclopropylurea] | < 50 | < 50 |  |  |
| O=C(Nc1ccc(Oc2ccnc3cc(OCCCN4CCCC4)c4c(c23)OCCO4)cc1Cl)NC1CC1 [Example 53, 1-(2-chloro-4-((5-(3-(pyrrolidin-1-yl)propoxy)-2,3-dihydro-[1,4]dioxino[2,3-f]quinolin-10-yl)oxy)phenyl)-3-cyclopropylurea] | < 50 | < 50 |  |  |
| COCCOc1cc2nccc(Oc3ccc(NC(=O)NC4CC4)c(F)c3)c2c2c1OCCO2 [Example 91, 1-cyclopropyl-3-(2-fluoro-4-((5-(2-methoxyethoxy)-2,3-dihydro-[1,4]dioxino[2,3-f]quinolin-10-yl)oxy)phenyl)urea] | < 50 | < 50 |  |  |
| O=C(Nc1ccc(Oc2ccnc3cc(OCCCN4CCOCC4)c4c(c23)OCCO4)cc1Cl)NC1CCC1 [Example 74, 1-(2-chloro-4-((5-(3-morpholinopropoxy)-2,3-dihydro-[1,4]dioxino[2,3-f]quinolin-10-yl)oxy)phenyl)-3-cyclobutylurea] | < 50 | < 50 |  |  |
| COc1cc2nccc(Oc3ccc(NC(=O)NC4CC4)c(F)c3)c2c2c1OCCO2 [Example 84, 1-cyclopropyl-3-(2-fluoro-4-((5-methoxy-2,3-dihydro-[1,4]dioxino[2,3-f]quinolin-10-yl)oxy)phenyl)urea] |  |  | < 50 | < 50 |
| CN(C)CCCCCCOc1cc2nccc(Oc3ccc(NC(=O)NC4CC4)c(Cl)c3)c2c2c1OCCO2 [Example 64, 1-(2-chloro-4-((5-((6-(dimethylamino)hexyl)oxy)-2,3-dihydro-[1,4]dioxino[2,3-f]quinolin-10-yl)oxy)phenyl)-3-cyclopropylurea] | < 50 | < 50 |  |  |
| COc1cc2nccc(Oc3ccc(NC(=O)Nc4cc(C(F)(F)F)ccc4C)cc3)c2c2c1OCCO2 [Example 95, 1-(4-((5-methoxy-2,3-dihydro-[1,4]dioxino[2,3-f]quinolin-10-yl)oxy)phenyl)-3-(2-methyl-5-(trifluoromethyl)phenyl)urea] | < 50 | < 50 |  |  |
| CCOc1cc2nccc(Oc3ccc(NC(=O)NC4CC4)c(Cl)c3)c2c2c1OCCO2 [Example 43, 1-(2-chloro-4-((5-ethoxy-2,3-dihydro-[1,4]dioxino[2,3-f]quinolin-10-yl)oxy)phenyl)-3-cyclopropylurea] | < 50 | < 50 |  |  |
| CC(C)NC(=O)Nc1ccc(Oc2ccnc3cc(OCCCN4CCOCC4)c4c(c23)OCCO4)cc1Cl [Example 88, 1-(2-chloro-4-((5-(3-morpholinopropoxy)-2,3-dihydro-[1,4]dioxino[2,3-f]quinolin-10-yl)oxy)phenyl)-3-isopropylurea] | < 50 | < 50 |  |  |
| O=C(Nc1ccc(Oc2ccnc3cc(OCCCN4CCS(=O)(=O)CC4)c4c(c23)OCCO4)cc1Cl)NC1CC1 [Example 58, 1-(2-chloro-4-((5-(3-(1,1-dioxothiomorpholino)propoxy)-2,3-dihydro-[1,4]dioxino[2,3-f]quinolin-10-yl)oxy)phenyl)-3-cyclopropylurea] | < 50 | < 50 |  |  |
| CC1(N)CCN(CCCOc2cc3nccc(Oc4ccc(NC(=O)NC5CC5)c(Cl)c4)c3c3c2OCCO3)CC1 [Example 61, 1-(4-((5-(3-(4-amino-4-methylpiperidin-1-yl)propoxy)-2,3-dihydro-[1,4]dioxino[2,3-f]quinolin-10-yl)oxy)-2-chlorophenyl)-3-cyclopropylurea] | < 50 | < 50 |  |  |
| N#CCCCOc1cc2nccc(Oc3ccc(NC(=O)NC4CC4)c(Cl)c3)c2c2c1OCCO2 [Example 93, 1-(2-chloro-4-((5-(3-cyanopropoxy)-2,3-dihydro-[1,4]dioxino[2,3-f]quinolin-10-yl)oxy)phenyl)-3-cyclopropylurea] | < 50 | < 50 |  |  |
| CCNC(=O)Nc1ccc(Oc2ccnc3cc(OC)c4c(c23)OCCO4)cc1Cl [Example 80, 1-(2-chloro-4-((5-methoxy-2,3-dihydro-[1,4]dioxino[2,3-f]quinolin-10-yl)oxy)phenyl)-3-ethylurea] | < 50 | < 50 |  |  |
| CN(C)CCCOc1cc2nccc(Oc3ccc(NC(=O)NC4CC4)c(Cl)c3)c2c2c1OCCO2 [Example 52, 1-(2-chloro-4-((5-(3-(dimethylamino)propoxy)-2,3-dihydro-[1,4]dioxino[2,3-f]quinolin-10-yl)oxy)phenyl)-3-cyclopropylurea] | < 50 | < 50 |  |  |
| CN1CCN(CCCOc2cc3nccc(Oc4ccc(NC(=O)Nc5ccc(Cl)c(C(F)(F)F)c5)cc4)c3c3c2OCCO3)CC1 [Example 21, 1-(4-chloro-3-(trifluoromethyl)phenyl)-3-(4-((5-(3-(4-methylpiperazin-1-yl)propoxy)-2,3-dihydro-[1,4]dioxino[2,3-f]quinolin-10-yl)oxy)phenyl)urea] | < 50 | < 50 |  |  |
| CN(CCCOc1cc2nccc(Oc3ccc(NC(=O)NC4CC4)c(Cl)c3)c2c2c1OCCO2)C1CCC1 [Example 63, 1-(2-chloro-4-((5-(3-(cyclobutyl(methyl)amino)propoxy)-2,3-dihydro-[1,4]dioxino[2,3-f]quinolin-10-yl)oxy)phenyl)-3-cyclopropylurea] | < 50 | < 50 |  |  |
| O=C(Nc1ccc(Oc2ccnc3cc(OCCCN4CCCCC4)c4c(c23)OCCO4)cc1)Nc1ccc(Cl)c(C(F)(F)F)c1 [Example 19, 1-(4-chloro-3-(trifluoromethyl)phenyl)-3-(4-((5-(3-(piperidin-1-yl)propoxy)-2,3-dihydro-[1,4]dioxino[2,3-f]quinolin-10-yl)oxy)phenyl)urea] |  | < 50 |  |  |
| COCCOc1cc2nccc(Oc3ccc(NC(=O)Nc4ccc(Cl)c(C(F)(F)F)c4)c(F)c3)c2c2c1OCCO2 [Example 37, 1-(4-chloro-3-(trifluoromethyl)phenyl)-3-(2-fluoro-4-((5-(2-methoxyethoxy)-2,3-dihydro-[1,4]dioxino[2,3-f]quinolin-10-yl)oxy)phenyl)urea] |  |  | < 50 |  |
| COCCCCCCOc1cc2nccc(Oc3ccc(NC(=O)Nc4ccc(Cl)c(C(F)(F)F)c4)cc3)c2c2c1OCCO2 [Example 29, 1-(4-chloro-3-(trifluoromethyl)phenyl)-3-(4-((5-((6-methoxyhexyl)oxy)-2,3-dihydro-[1,4]dioxino[2,3-f]quinolin-10-yl)oxy)phenyl)urea] | < 50 |  |  |  |

Source: US11479559B2, “Urea-substituted aromatic ring-linked dioxinoquinoline compounds, preparation method and uses thereof” (BEIJING SCITECH-MQ PHARMACEUTICALS LIMITED, priority 2018, dated 2022)
